Laboratory results: patent US20250044306A1, “Methods for Determining Opioid Responsiveness in the Treatment of Pain” (priority 2021, published 2025)
Values joined by “and” are separate entries in the source; they are usually repeats but may differ in a detail not shown here. Identical values can stand only once.

What was measured:
[1] = test system: thermal hyperalgesia in SCI animals; assay: Tail flick thermal nociception in contusion SCI rats; type: in vivo, Long-Evans rats; settings: for % analgesia (maximum possible effect, MPE), tail flick latency: drug alone, s.c. 30 mins prior to testing, morphine 2 mg/kg; for % Analgesia scores, injection of drug alone, compared to morphine alone (52.01%) / % analgesia (MPE), tail flick latency, drug added to morphine: rat, in vivo
[2] = test system: thermal hyperalgesia in SCI animals; settings: rodent SCI model; Rodgers et al. 2019, 2020; cited from earlier work
DIR receptor = DIR receptor (Homo sapiens, UniProt P21728); settings: Millan, Maiofiss et al. 2002; Chen, Collins et al. 2008; cited from earlier work
patients with pain = settings: clinical study using morphine to treat pain; cited from earlier work
[3] = morphine nonresponsive SCI animals (n=18), pramipexole 0.1 mg/kg, SCH 39166 0.1 mg/kg

Sequence of DIR receptor (P21728 whole entry): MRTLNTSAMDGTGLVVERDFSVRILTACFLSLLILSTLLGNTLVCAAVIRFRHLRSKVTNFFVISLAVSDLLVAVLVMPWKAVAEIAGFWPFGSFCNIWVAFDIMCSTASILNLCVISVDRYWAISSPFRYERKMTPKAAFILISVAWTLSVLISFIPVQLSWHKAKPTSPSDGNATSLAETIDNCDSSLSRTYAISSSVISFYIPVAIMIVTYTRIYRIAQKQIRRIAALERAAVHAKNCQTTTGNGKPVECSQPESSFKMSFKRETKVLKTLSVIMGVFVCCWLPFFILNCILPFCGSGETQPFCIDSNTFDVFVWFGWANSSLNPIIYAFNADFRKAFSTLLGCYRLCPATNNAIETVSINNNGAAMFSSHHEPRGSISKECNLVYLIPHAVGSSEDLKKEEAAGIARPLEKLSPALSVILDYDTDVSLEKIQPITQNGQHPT

Compound	% analgesia (maximum possible effect, MPE), tail flick latency [1, 3]	% Analgesia scores, injection of drug alone, compared to morphine alone (52.01%) [1]	% analgesia (MPE), tail flick latency, drug added to morphine [1]	Share of SCI animals responsive to morphine (earlier studies) [2]	Share of SCI animals in which an acute injection of morphine provided analgesia ([1]; morphine 2 mg/kg s.c., n=8 of 26 SCI animals)	% analgesia (maximum possible effect, MPE), tail flick latency ([1]; morphine responsive SCI animals (n=8))	Binding to the DIR receptor (DIR receptor)	Patients who continued morphine treatment for pain management for more than 12 months (patients with pain)	Patients who failed to respond to morphine treatment (patients with pain)
CN1CCc2cc(Cl)c(O)cc2[C@H]2c3ccccc3CC[C@@H]21 [SCH 39166]	−37.5%±6.99	−21.07%±10.46	18.79%±13.547 and 29.56%+11.51						
CN1CC[C@]23c4c5ccc(O)c4O[C@H]2[C@@H](O)C=C[C@H]3[C@H]1C5 [morphine]	−24.48%±6.241			⅓ and one third	one third	52.01%±3.494	neither morphine nor pramipexole bind to the DIR receptor	15%	more than 50%
CCCN[C@H]1CCc2nc(N)sc2C1 [pramipexole]	−7.27%±11.06	12.87%±15.84	96.98%±1.985 and 64.38%±10.37						
